Experimental data published in ChEMBL document CHEMBL5678818, “Discovery of potent SOS1 inhibitors that block RAS activation via disruption of the RAS-SOS1 interaction” (Proc Natl Acad Sci U S A, 2019).

Columns and labels:
[1] = molecular target: Hepatocyte growth factor receptor (Homo sapiens) (UniProt P08581); experiment: Inhibition of MET (unknown origin) assessed as residual activity at 1000 nM by KINOMEscan analysis relative to control
[2] = molecular target: T1, Muscle, skeletal receptor tyrosine-protein kinase (Homo sapiens) (UniProt O15146); experiment: Inhibition of MUSK (unknown origin) assessed as residual activity at 1000 nM by KINOMEscan analysis relative to control
T1 sequence (whole entry): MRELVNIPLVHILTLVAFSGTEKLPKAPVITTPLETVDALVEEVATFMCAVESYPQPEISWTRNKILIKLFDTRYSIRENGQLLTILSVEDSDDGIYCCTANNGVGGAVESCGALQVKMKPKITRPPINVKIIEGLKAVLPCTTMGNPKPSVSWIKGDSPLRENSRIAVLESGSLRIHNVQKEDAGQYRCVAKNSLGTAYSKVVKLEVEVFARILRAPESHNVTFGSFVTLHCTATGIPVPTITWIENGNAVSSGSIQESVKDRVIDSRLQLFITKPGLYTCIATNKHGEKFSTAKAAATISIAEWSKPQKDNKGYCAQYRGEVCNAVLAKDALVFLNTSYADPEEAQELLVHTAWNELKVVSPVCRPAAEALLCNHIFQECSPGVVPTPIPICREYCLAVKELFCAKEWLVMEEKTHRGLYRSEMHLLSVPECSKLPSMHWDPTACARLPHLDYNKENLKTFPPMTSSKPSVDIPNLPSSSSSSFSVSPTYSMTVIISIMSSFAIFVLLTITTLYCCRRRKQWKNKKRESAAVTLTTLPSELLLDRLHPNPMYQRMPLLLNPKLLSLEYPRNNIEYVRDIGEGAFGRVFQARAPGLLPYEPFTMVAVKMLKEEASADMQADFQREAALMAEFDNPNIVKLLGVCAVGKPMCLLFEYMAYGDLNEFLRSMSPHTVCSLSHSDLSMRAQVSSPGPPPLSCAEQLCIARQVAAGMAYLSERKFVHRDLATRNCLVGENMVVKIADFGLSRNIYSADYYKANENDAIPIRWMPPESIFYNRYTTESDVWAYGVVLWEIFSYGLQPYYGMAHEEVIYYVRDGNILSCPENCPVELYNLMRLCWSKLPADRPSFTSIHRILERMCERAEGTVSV

[3] = molecular target: T2, Mitogen-activated protein kinase kinase kinase kinase 3 (Homo sapiens) (UniProt Q8IVH8); experiment: Inhibition of MAP4K3 (unknown origin) assessed as residual activity at 1000 nM by KINOMEscan analysis relative to control
T2 sequence (whole entry): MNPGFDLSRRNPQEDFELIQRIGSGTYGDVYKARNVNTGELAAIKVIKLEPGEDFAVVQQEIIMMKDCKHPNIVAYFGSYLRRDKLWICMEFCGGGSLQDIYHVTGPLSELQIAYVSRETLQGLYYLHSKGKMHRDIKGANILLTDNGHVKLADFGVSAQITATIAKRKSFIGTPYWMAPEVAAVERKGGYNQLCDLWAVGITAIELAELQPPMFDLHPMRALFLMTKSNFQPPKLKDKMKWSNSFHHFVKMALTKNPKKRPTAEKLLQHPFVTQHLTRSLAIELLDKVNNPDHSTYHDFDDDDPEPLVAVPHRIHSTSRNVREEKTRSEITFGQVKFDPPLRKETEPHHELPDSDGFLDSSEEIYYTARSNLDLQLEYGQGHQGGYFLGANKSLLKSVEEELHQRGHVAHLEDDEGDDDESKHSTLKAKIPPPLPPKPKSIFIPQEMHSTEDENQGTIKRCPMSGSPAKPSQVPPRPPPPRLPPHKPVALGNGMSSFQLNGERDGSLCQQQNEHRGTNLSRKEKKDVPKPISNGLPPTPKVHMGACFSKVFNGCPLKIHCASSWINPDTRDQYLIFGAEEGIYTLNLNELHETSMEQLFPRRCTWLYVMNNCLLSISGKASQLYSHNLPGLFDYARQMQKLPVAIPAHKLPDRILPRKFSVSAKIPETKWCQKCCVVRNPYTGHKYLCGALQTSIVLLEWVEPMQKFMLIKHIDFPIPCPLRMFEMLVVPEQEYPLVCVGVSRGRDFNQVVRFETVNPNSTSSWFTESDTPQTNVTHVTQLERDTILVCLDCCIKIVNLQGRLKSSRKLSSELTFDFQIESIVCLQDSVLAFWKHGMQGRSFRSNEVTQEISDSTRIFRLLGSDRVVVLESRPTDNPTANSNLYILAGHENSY

[4] = molecular target: T3, Inhibitor of nuclear factor kappa-B kinase subunit epsilon (Homo sapiens) (UniProt Q14164); experiment: Inhibition of IKK-epsilon (unknown origin) assessed as residual activity at 1000 nM by KINOMEscan analysis relative to control
T3 sequence (whole entry): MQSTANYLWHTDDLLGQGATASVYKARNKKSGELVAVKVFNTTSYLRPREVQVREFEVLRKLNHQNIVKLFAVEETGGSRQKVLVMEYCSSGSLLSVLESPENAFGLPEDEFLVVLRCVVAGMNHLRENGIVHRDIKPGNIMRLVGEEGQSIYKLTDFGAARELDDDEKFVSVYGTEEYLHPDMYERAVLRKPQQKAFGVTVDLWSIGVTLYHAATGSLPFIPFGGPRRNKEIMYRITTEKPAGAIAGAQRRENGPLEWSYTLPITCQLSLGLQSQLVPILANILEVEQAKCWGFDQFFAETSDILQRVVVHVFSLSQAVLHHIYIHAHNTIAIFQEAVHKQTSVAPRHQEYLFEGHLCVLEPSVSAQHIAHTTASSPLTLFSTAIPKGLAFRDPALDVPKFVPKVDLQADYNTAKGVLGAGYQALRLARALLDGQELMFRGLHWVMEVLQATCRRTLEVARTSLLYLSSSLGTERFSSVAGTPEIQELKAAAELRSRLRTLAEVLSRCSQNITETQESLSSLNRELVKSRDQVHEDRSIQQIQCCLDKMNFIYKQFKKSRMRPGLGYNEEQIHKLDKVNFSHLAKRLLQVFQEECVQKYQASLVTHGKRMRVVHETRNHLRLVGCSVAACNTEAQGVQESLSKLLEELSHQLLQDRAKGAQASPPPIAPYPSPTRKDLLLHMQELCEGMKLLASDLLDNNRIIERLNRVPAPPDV

[5] = molecular target: Interferon-induced, double-stranded RNA-activated protein kinase (Homo sapiens) (UniProt P19525); experiment: Inhibition of PRKR (unknown origin) assessed as residual activity at 1000 nM by KINOMEscan analysis relative to control
Chain of Interferon-induced, double-stranded RNA-activated protein kinase (Homo sapiens) (P19525 whole entry): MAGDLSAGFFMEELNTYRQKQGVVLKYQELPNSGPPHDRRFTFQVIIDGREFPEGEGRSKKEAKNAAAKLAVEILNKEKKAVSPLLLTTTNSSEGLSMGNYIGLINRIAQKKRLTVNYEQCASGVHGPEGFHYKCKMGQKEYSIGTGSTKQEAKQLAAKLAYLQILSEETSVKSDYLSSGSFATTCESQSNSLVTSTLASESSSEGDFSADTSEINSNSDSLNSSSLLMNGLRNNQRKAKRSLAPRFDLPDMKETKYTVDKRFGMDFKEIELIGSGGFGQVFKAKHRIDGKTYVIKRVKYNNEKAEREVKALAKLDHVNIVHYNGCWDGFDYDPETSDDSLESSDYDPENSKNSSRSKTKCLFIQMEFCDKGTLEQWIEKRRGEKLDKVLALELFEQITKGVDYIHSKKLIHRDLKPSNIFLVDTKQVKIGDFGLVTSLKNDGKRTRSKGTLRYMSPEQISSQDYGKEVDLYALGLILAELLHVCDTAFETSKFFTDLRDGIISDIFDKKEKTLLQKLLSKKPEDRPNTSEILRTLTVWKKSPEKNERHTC

Chain of Hepatocyte growth factor receptor (Homo sapiens) (P08581 whole entry): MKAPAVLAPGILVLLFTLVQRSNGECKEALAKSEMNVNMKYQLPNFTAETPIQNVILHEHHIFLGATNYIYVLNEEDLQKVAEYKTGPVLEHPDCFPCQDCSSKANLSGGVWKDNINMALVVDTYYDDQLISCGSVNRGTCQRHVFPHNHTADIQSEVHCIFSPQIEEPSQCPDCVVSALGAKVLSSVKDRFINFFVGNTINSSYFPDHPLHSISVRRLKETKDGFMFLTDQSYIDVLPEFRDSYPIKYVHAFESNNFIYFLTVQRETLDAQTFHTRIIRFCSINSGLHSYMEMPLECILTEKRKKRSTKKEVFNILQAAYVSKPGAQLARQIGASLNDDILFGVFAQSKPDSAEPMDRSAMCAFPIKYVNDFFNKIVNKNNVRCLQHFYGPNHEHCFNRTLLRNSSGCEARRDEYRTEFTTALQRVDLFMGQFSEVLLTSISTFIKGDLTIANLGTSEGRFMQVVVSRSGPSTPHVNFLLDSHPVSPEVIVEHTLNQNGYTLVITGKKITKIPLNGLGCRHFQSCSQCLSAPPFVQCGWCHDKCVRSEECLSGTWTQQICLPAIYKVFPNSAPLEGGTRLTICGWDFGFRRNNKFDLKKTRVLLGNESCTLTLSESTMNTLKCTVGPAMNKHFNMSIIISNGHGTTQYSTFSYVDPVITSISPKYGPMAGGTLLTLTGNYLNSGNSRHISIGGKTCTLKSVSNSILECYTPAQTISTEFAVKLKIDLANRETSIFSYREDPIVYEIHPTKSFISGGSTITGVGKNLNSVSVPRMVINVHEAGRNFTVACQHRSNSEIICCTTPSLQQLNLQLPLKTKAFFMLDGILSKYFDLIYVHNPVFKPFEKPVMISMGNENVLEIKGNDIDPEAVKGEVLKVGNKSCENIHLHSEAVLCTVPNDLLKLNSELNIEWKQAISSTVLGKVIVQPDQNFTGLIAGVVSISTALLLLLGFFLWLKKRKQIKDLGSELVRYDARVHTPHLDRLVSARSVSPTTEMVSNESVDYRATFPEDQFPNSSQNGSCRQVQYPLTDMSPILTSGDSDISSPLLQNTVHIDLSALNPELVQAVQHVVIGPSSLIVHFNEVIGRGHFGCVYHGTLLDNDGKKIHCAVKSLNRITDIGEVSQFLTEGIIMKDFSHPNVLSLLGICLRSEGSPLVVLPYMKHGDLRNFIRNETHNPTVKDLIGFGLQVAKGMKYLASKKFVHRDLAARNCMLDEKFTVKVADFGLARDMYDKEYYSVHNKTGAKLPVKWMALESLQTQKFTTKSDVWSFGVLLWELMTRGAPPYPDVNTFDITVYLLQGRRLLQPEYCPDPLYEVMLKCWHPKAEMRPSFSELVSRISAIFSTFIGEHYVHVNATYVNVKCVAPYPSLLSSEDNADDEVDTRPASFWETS

SMILES | Activity [1] [%] | Activity [2] [%] | Activity [3] [%] | Activity [4] [%] | Activity [5] [%]
COc1cc2nc(C)nc(N[C@H](C)c3cccc(-c4cn[nH]c4)c3)c2cc1OC | 97 | 91 | 90 | 88 | 72
COc1cc2ncnc(N[C@H](C)c3cccc4ccccc34)c2cc1OC | 100 | 97 | 100 | 98 | 92
